Data set [1] deals with rhinoviruses and enteroviruses. Conditions: cited from earlier work.
For data set [2] the following is noted: cited from earlier work.
For data set [3] the following is noted: cited from earlier work; for metabolization and excretion / bioavailability: in vivo.
For data set [4] the following is noted: in vivo; cited from earlier work.
Another data set relates to HRV A16. The experiment in a line: HRV A16 CPE inhibition assay. It counts as cell-based. Conditions: Human rhinovirus sp.; HRV A16, cytopathic effect inhibition. How it is done:
(§1) Bioactivity of the Compounds of the Invention was Determined Using the Following Methods. Determination of Drug Efficacy Against Picornaviruses Using Cytopathic Effect (CPE) Inhibition Assay
(§2) In the assay, HeLa (human cervical cancer cells), MRC-5 (human fetal lung fibroblast cells), and RD cells (derived from human rhabdomyosarcoma) were employed. For comparison, ribavirin (Riv), Pleconaril (pleco), and […] (BTA) were used as controls. Reagents were dissolved at a concentration of 10-40 mg/ml in 100% dimethyl sulfoxide (DMSO). Water-soluble reagents were dissolved in PBS (−) solution and stored at −20° C. On the day of the experiment, they were used in 3 fold to 5 fold concentrations in such a manner that the concentration of dimethyl sulfoxide in each well was between 0.5% and 1%.
(§3) Pharmaceutical efficacy was determined using a virus-induced cytopathic effect (CPE) inhibition assay. In this regard, after cells suitable for viruses were grown in 96-well plates, dilutions of viruses in DME supplemented with 2% FBS (DME/2% FBS) or MEM supplemented with 2% FBS (MEM/2% FBS) were inoculated in an amount of […] with a concentration corresponding to 100 CCID50 (50% cell culture infective dose) into each well of the plates, and incubated for 30 min-1 hr at 33° C. or 37° C. to allow the viruses to adsorb onto the cells. The culture medium was removed before aliquots of drug dilutions with various concentrations were added in an amount of 100 μl to each well. While HRV (human rhinovirus) was grown at 33° C., the other viruses were incubated in a 37° C. CO2 incubator for 2-3 days. Alternatively, the cells were cultured for 2-3 days without removal of the medium after they were added with 50 μl of each drug dilution having a 2-fold higher concentration and then with 50 μl of the virus dilution. Viruses were incubated in host HeLa cells at 37° C. for 2-3 days in DME/2% or MEM/2% FBS.
(§4) For HeLa cells, the drugs were measured for EC50 (50% maximal effective concentration), which is the concentration of a drug inducing a response halfway between the baseline and maximum, using an MTT assay. With regard to RD and MRC-5 cells, CPE was determined using FDA (Fluorescein diacetate) or MTT. In order to determine the effect of drug toxicity on efficacy results, at the time of inoculation with the virus, mock-infection was also included. A virus-free medium was added to a cell culture, which was then subjected to the same treatment as the mock-infected cells inoculated with the virus. That is, the medium was removed after one hour of incubation, and dilutions of drugs in the medium were added once more. Following incubation for 2-3 days, the cells were observed under a microscope and the drugs were determined for CC50 (50% cytotoxic concentration) at which 50% of the cells were killed, using an MTT assay in which counts of viable cells in mock-infected wells containing drugs were compared to those of viable cells in control wells containing no drugs. In an FDA hydrolysis assay, FDA was added to each well after removal of the medium, and incubated for 20-30 min before fluorescence intensity was measured using a spectrofluorometer to determine CPE in the same manner as in MTT.
(§5) In addition, antiviral effects can be calculated using Mathematical Formula 2 below: Antiviral Effect=[A(Drug/Virus)−A(Virus Control)/A(Cell control)−A(Virus Control)]
(§6) If the survival rate is 100%, its antiviral effect is 100% whereas if the survival rate is 0%, its antiviral effect is none. […]
(§7) Specifically, cells grown to confluence in 96-well plates were infected with 100 50% cell culture infected doses (CCID50) of virus. After an adsorption period of 2 hrs at 37° C., the virus was removed and serial dilutions of the compounds were added. […] After removal of the medium, 90 μl of a culture medium and 10 μl of MTS-phenazine methosulfate (Promega, Leiden, The Netherlands) were added to each well. […]
For orientation: Cytopathic effects are the visible damage that an infection or toxin causes in cultured cells.

For the next data set, the system named is HRV A29. Kind of data set: HRV A29 CPE inhibition assay. It counts as cell-based. Conditions: Human rhinovirus sp.; HRV A29, cytopathic effect inhibition. The procedure: as §1, §2, §3, §4, §5, §6, §7
A further data set has as its system HRV A1B. The experiment in a line: HRV A1B CPE inhibition assay. In kind it is cell-based. Conditions: Human rhinovirus sp., cytopathic effect inhibition, read-out: HRV A1B_CPE (EC50 μM). How it is done: as §1, §2, §3, §4, §5, §6, §7
The next data set concerns HRV B14. The experiment in a line: HRV B14 CPE inhibition assay. As to conditions: Human rhinovirus sp.; HRV B14, cytopathic effect inhibition. It counts as cell-based. How it is done: as §1, §2, §3, §4, §5, §6, §7
Another data set concerns C15_C3 REPLICON
The experiment in a line: C15_C3 replicon assay. In kind it is cell-based.

Data set [5] in a line: Cytotoxicity (CC50) in mock-infected cells, MTT assay. In kind it is cell-based. As to conditions: human, HeLa cells (mock-infected), 50% cytotoxic concentration, read-out: CYTOTOX (CC50 μM). The procedure: as §4
That is, the survival rate (% survival) of mock-infected cells for cytotoxicity measurement was calculated using the Mathematical Formula 1 below: Cell Drug=Survival by [A(Drug)−A(Background solution)/A(Cell control)−A(Background×100% Solution)]
While 100% cell survival means no cytotoxicity of the drug, the highest cytotoxicity is reflected by 0% cell survival. The 50% cytotoxic concentration was defined as the concentration required to reduce the cell number by 50%. This concentration of the drug is represented as CC50. Higher values mean lower cytotoxicity. […]
In Mathematical Formulae 3 and 4 above, • OD (CC) represents the OD of the background cell culture that is neither induced by a virus nor treated by chemical, • OD (VC) represents the OD of the control cell culture that is induced by a virus but not treated by chemical, • OD (Virus+Compound) represents the OD of the cell culture infected by a virus that has been treated with a concentrated compound, • OD (Compound) represents the OD of the cell culture that has been treated with a concentrated compound only, and • OD (Blank) represents the OD of the well to which only the cell culture has been added.
The effective concentration (EC50) represents the concentration of a drug at which 50% of cells are allowed to survive by CPE of an induced virus, and the cytotoxicity concentration (CC50) represents the concentration of a drug at which a compound has killed 50% of cells, and they were calculated by the logarithmic interpolation.
(Tetrazolium assays rely on reduction of a dye to a coloured formazan, in cell work by metabolically active cells.)

The subject of data set [6] is 48 rhinovirus types and coxsackievirus A21, B3, enterovirus 70 and echovirus 11. Conditions: cited from earlier work.
The conditions of data set [7]: cited from earlier work. This is another data set of the same source.

Usually EC50 stands for the concentration that produces a half-maximal response. Usually CC50 stands for the concentration giving 50% cytotoxicity.

On to `CCOC(=O)c1ccc(OCCC2CCN(c3ccc(C)nn3)CC2)cc1` [pirodavir], for which the “antiviral effects in the cell culture” value in [1] was “very good antiviral effects”.
Consider `CC(C)S(=O)(=O)n1c(N)nc2ccc(/C(=N/O)c3ccccc3)cc21` [Enviroxime], for which, in [2], the “pharmacokinetics in clinical studies” value is “bad pharmacokinetics” and the “therapeutic effects in clinical studies” value is listed as “insignificant or few therapeutic effects”.
Take `Cc1cc(CCCOc2c(C)cc(-c3noc(C(F)(F)F)n3)cc2C)on1` [Pleconaril]: in data set [3] (oral), the oral bioavailability result was “very good oral bioavailability”.
Regarding `Cc1cc(CCCCCOc2c(Cl)cc(C3=NCCO3)cc2Cl)on1` [WIN 54954], the metabolization and excretion result in data set [3] is “rapid metabolization and excretion”. The side effects result in [4] is “skin rash”.
In the case of `Cc1cc(CCCCCCCOc2ccc(C3=NCCO3)cc2)on1` [disoxaril], the “antiviral effects in the cell culture” value in data set [1] was “very good antiviral effects”. Besides, in data set [3], the bioavailability result is listed as “low bioavailability”; the metabolization and excretion entry is “rapid metabolization and excretion”.
For the compound `Cc1cc(S(=O)(=O)N2CCN(C)CC2)[nH]c1C(=O)NC12C(=O)c3c(N)cccc3C1(O)Oc1cc([C@H]3C[C@H]3C)ccc12` (stereo partly drawn) [Example 24, N-(1-amino-4b-hydroxy-7-((1S,2R)-2-methylcyclopropyl)-10-oxo-4b,10-dihydro-9bH-indeno[1,2-b]benzofuran-9b-yl)-3-methyl-5-((4-methylpiperazin-1-yl)sulfonyl)-1H-pyrrole-2-carboxamide], the EC50 in the data set on HRV A16 was determined as 0.039 µM; in the data set with HRV A29 it was 0.037 µM; in the data set on HRV A1B it was 0.016 µM; in the data set with HRV B14 it was 0.016 µM; in the data set with C15_C3 REPLICON, 0.34 µM. The CC50 in data set [5] came to 28.4 µM.
Regarding `Cc1cc(S(=O)(=O)N2CCN(C)CC2)[nH]c1C(=O)N[C@]12C(=O)c3c(N)cccc3[C@@]1(O)Oc1cc([C@H]3C[C@@H]3C)ccc12` [Example 14, N-((4bR,9bR)-1-amino-4b-hydroxy-7-((1S,2S)-2-methylcyclopropyl)-10-oxo-4b,10-dihydro-9bH-indeno[1,2-b]benzofuran-9b-yl)-3-methyl-5-((4-methylpiperazin-1-yl)sulfonyl)-1H-pyrrole-2-carboxamide], the EC50 in the data set with HRV A16 turned out to be 0.023 µM; with HRV A29, 0.03 µM; in the data set with HRV A1B, 0.016 µM; with HRV B14 it was 0.016 µM; in the data set with C15_C3 REPLICON it was 0.516 µM. Further, the CC50 in data set [5] is 21.9 µM.
Take `Cc1cc(S(=O)(=O)N2CCN(C)CC2)[nH]c1C(=O)NC12C(=O)c3c(N)cccc3C1(O)Oc1cc(C(C)C)ccc12` (stereo not shown) [Example 13, N-(1-amino-4b-hydroxy-7-isopropyl-10-oxo-4b,10-dihydro-9bH-indeno[1,2-b]benzofuran-9b-yl)-3-methyl-5-((4-methylpiperazin-1-yl)sulfonyl)-1H-pyrrole-2-carboxamide]: the concentration giving a half-maximal response (EC50) with HRV A16 was determined as 0.027 µM; in the data set with HRV A29, 0.05 µM; in the data set on HRV A1B it was 0.016 µM; in the data set on HRV B14, 0.016 µM; in the data set on C15_C3 REPLICON, 0.682 µM. Also, the CC50 in data set [5] worked out at 32.1 µM.
Turning to `CCOC(=O)/C=C/[C@H](C[C@@H]1CCNC1=O)NC(=O)[C@@H](CC(=O)[C@@H](NC(=O)c1cc(C)on1)C(C)C)Cc1ccc(F)cc1` [AG 7088], in [6], the “concentration range of effect in the cell culture” value is on record as “nanomolar concentration range”.
Take `Cc1c(S(C)(=O)=O)c[nH]c1C(=O)N[C@]12C(=O)c3c(N)cccc3[C@@]1(O)Oc1cc([C@H]3C[C@@H]3C)ccc12` [Example 28, N-((4bR,9bR)-1-amino-4b-hydroxy-7-((1S,2S)-2-methylcyclopropyl)-10-oxo-4b,10-dihydro-9bH-indeno[1,2-b]benzofuran-9b-yl)-3-methyl-4-(methylsulfonyl)-1H-pyrrole-2-carboxamide]: the concentration giving a half-maximal response (EC50) in the data set on HRV A16 was 0.16 µM; with HRV A29, 0.045 µM; in the data set on HRV A1B, 0.037 µM; in the data set on HRV B14, 0.016 µM; in the data set on C15_C3 REPLICON it was 1.85 µM. For the same compound, the CC50 in data set [5] is 19.8 µM.
Consider `C[C@H](c1ccc2c(c1)O[C@]1(O)c3cccc(N)c3C(=O)[C@]21NC(=O)c1cccc(O)n1)C1CC1` [Example 3, N-((4bR,9bR)-1-amino-7-((S)-1-cyclopropylethyl)-4b-hydroxy-10-oxo-4b,10-dihydro-9bH-indeno[1,2-b]benzofuran-9b-yl)-6-hydroxypicolinamide], for which the EC50 with HRV A16 is 0.057 µM; in the data set on HRV A29, 0.02 µM; in the data set on HRV A1B it was 0.033 µM; with HRV B14, 0.016 µM; in the data set with C15_C3 REPLICON it was 4.81 µM. In addition, the half-maximal cytotoxic concentration (CC50) in data set [5] amounted to 32.3 µM.
With `CCC(=O)C(CCCCCCOc1ccc(OC)cc1Cl)C(=O)CC` [Arildone], the “antiviral effects in the cell culture” value in [1] was “very good antiviral effects”. Also, the solubility result in [7] is on record as “poor solubility”. The bioavailability result in [3] is on record as “low bioavailability”.

These data come from patent publication US12286423B2, “Antiviral 1,3-di-oxo-indene compounds” (Novartis AG, priority 2020, dated 2025).
